Results taken from patent US20040138272A1, “1,4-Substituted cyclohexane derivatives” (priority 2002, published 2004).
Entries after “also recorded” stand apart in the source; their conditions may differ.

Legend:
[1] = system: NG108-15 neuronal cell line; experiment: Rapid bioassay of neurite growth in NG108-15 cells; type: cell-based; settings: 35 uM
Experimental: When neurons are placed on inhibitory substrates in tissue culture, the neurons remain rounded. When an effective Rho kinase inhibitor is added to the neurons, the neurons are able to grow neurites on myelin substrates. The time that it takes for neurons to grow neurites after the addition of a Rho kinase inhibitor is about the same as the time that it takes for neurons to grow neurites if the neurons had been plated on growth permissive substrate such as laminin or polylysine, which time is typically 1 to 2 days in cell culture. An assessment of resulting neurite growth can be scored by visual means. If needed, a quantitative assessment of neurite growth can be performed. This involves measuring after a time such as 1 to 2 days the neurite length a) in control cultures where neurons are plated on myelin substrates and left untreated with Rho kinase inhibitor for such time, b) in positive control cultures, wherein for example neurons are plated on polylysine but left untreated with Rho kinase inhibitor for such time, and c) in cultures analogous to a) and b) that are treated with different concentrations of a Rho kinase inhibitor for such time. […] In this assay, NG108 cells are plated on plastic in the presence or absence of the test substance (a Rho kinase inhibitor). […] The relative efficacy can be assessed by fixing the cultures 5 hours after plating, and counting the number of cells that have grown neurites.
A rapid bioassay is used to determine the effect of a test compounds on the stimulation of neurite growth in vitro. A neuronal cell line, NG108-15 (ATCC HB-12317), is maintained in culture in Dulbecco's minimal essential medium (DMEM) supplemented with 10% fetal bovine serum, Penicillin/Streptomycin and HAT supplement (Gibco/BRL). For the bioassay, the cells are collected by trypsinisation and ressuspended in DMEM supplemented with 5% FBS, Penicillin/Streptomycin, HAT supplement and 0.25 mg/ml cAMP, adjusted to 1.0×10^4 cells/ml. The cells are plated into wells of a 96 well plate at 100 μls (1000 cells)/well. Cells are incubated 4 h at 37° C. and 5% CO2 in presence of small molecules or cethrin at a concentration of 1000 cells per well of a 96-wells plate in a final volume of 100 ul.
After incubation, cells are fixed by adding […] 16% PFA and 5.4 μls 2.5% glutaraldehyde to the media in each well. The wells are stained with cresyl violet 0.05% , 100 μls/well for 15 min. Cells with neurites (length≧one cell body) are counted using an inverted light microscope. The % neurite outgrowth is determined by calculating the number of cells with neurites over the total number of counted cells.

[2] = molecular target: T1, human Rho kinase II (ROCK-II (h)) (Homo sapiens, UniProt O75116); experiment: Commercial inhibition assay with recombinant human ROCKII, IC50 curves (FIGS. 8, 9); type: biochemical
T1 construct: purchased
T1 sequence (O75116 whole entry): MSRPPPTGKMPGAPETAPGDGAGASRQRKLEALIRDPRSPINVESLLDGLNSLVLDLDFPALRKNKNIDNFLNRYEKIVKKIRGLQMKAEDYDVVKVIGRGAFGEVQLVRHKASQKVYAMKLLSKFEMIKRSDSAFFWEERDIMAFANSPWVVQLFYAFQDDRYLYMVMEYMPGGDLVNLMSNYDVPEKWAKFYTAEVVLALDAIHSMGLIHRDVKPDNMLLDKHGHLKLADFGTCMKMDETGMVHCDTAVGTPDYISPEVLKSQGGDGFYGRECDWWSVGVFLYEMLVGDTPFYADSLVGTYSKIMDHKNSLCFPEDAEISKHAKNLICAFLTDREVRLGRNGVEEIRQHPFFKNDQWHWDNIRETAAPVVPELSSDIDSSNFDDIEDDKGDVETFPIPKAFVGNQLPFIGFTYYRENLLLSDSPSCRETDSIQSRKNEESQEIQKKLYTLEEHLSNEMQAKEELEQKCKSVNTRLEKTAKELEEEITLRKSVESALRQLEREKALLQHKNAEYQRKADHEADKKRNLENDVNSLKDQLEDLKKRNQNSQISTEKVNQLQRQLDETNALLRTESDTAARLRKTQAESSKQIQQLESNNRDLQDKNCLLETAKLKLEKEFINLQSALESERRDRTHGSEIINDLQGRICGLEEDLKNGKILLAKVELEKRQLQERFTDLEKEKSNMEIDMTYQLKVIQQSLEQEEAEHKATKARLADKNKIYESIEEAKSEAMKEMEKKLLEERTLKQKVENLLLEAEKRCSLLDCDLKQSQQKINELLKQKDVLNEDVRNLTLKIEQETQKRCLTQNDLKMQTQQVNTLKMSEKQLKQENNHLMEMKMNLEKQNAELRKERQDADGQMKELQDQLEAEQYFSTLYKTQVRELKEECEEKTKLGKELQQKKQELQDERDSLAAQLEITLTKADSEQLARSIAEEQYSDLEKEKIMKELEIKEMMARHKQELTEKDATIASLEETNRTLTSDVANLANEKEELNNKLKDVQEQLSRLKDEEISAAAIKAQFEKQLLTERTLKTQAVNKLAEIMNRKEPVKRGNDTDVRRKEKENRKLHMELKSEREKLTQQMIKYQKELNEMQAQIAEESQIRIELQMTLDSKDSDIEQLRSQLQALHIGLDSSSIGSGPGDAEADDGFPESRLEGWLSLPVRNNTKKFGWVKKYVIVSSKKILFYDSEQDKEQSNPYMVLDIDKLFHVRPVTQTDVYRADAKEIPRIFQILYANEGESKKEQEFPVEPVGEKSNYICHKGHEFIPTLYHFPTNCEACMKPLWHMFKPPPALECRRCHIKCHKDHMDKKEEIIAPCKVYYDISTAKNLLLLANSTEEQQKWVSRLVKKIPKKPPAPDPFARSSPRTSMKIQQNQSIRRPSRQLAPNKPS
Description: Referring to FIGS. 8 and 9 inhibiton of ROCKII activity and determination of IC50 may also be done throught the use of known (i.e. commercial) inhibition assays that use recombinant human ROCKII.

[3] = molecular target: glycogen synthatase kinase 3 beta (GSKB) (Homo sapiens, UniProt P49841); experiment: GSK B kinase activity of compounds (FIG. 10); type: biochemical; settings: 10 uM
Chain of glycogen synthatase kinase 3 beta (GSKB) (P49841 whole entry): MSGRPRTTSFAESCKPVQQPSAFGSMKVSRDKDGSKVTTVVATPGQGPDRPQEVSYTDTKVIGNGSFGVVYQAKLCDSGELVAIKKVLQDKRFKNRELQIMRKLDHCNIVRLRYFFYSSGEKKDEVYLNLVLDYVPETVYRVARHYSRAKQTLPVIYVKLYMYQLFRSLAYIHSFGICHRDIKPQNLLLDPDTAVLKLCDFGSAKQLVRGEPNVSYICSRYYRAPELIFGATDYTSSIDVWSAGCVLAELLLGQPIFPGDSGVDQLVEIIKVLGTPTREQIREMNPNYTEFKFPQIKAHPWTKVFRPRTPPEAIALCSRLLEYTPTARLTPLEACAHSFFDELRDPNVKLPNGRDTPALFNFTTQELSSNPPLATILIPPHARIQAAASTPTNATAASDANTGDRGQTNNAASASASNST

[4] = system: SK-MEL-1 human malignant melanoma; experiment: Thymidine uptake anti-proliferation assay, SK-MEL-1; type: cell-based
Experimental: (§1) The antiproliferative effects of BA-1037 were tested by a thymidine uptake assay with several different human cancer cell lines grown in culture. The cell lines tested were HEC-1B human adnocarcinoma, SK-MEL-1 human malignant melanoma, and Caco-2 human colorectal adenocarcinoma. The cells were seeded in a 96 well plate and after 2 hours the cells were treated with test BA-1037 compound or with control solutions. The control solutions were PBS as a negative control, and with complete medium plus the DMSO vehicle (at 0.1% or 1%). BA-1037 was added at three different concentrations: 1 uM, 10, uM or 100 uM. Each control solution and test solution was plated in triplicate for each cell line. The plate was incubated at 37 C. with 5% CO2 in a humidified atmosphere for approximately 54 hours. A volume of 0.02 ml of 3H-methy thymidine which contained 1.0 uCi was added to each well. The culture was incubated a further 18 hours. Using an automated cell harvestor the cells from each well were aspirated onto a glass microfiber filter. The cells were broken with distilled water to leave mainly the DNA on the filter. Each filter was placed in a scintillation counter (TopCount NXT). At appropriate settings for the 3H, each filter was counted for one minute. The results are expressed as CPM (counts per minute).

[5] = system: HEC-1B human adnocarcinoma; experiment: Thymidine uptake anti-proliferation assay, HEC-1B; type: cell-based; settings: 100 uM, versus DMSO and PBS controls; Dihydrochloride
Experimental: as §1

## CCCCCCCCNN[C@H]1CC[C@H](C(=O)Nc2ccncc2)CC1.Cl.Cl [BA-1037, trans-4-[N′-(Octyl)hydrazino]-N-(4′″-pyridyl)cyclohexane Carboxamide Dihydrochloride]
[1]
  neurite growth by bioassay, normalized to BA-1016 (FIG. 7): equally well as BA-1016
[2]
  IC50: 6.5 µM
[3]
  activity towards GSKB (FIG. 10): can exert activity
[4]; 1 uM, 10 uM and 100 uM, versus DMSO and PBS controls, Dihydrochloride
  cell proliferation, all three doses: significantly blocked cell proliferation; also recorded: reduce cell proliferation
[4]; 100 uM
  cell proliferation, highest concentration tested: complete arrest of cell proliferation
[5]
  cell proliferation, highest dose tested: significantly blocked cell proliferation; also recorded: completely block proliferation
